Experimental data published in the NIST ThermoML archive (doi:10.1016/j.tca.2004.11.001).
Numbers after ± are expanded uncertainties.

Test: molar heat capacity at constant pressure; xn = mol fraction of the nth substance listed
Conditions: 101.33 kPa, Liquid, x2 = 0

O [water] + CCCCCCOCCOCCOCCOCCOCCO
Conditions | molar heat capacity at constant pressure [J/K/mol]
283 K | 75.53 ± 0.29
288 K | 75.41 ± 0.29
298 K | 75.3 ± 0.29
308 K | 75.28 ± 0.29
318 K | 75.3 ± 0.29
328 K | 75.35 ± 0.29
338 K | 75.43 ± 0.29
